Patent US20240050428A1 (Cullgen (Shanghai), Inc., priority 2020, published 2024)
Read-outs that look alike come from different tables or passages of the source.

Experiments:
MV4;11 cells = experiment: Cell viability assay (CellTiter-Glo) in MV4;11 cells, alone or with gilteritinib; type: cell-based; conditions: Homo sapiens, MV4-11, 72 h, MV4;11 cells, three days, CellTiter-Glo, read-out: MV4
MOLM-13 cells = experiment: Cell viability assay (CellTiter-Glo) in MOLM-13 cells, alone or with gilteritinib; type: cell-based; conditions: Homo sapiens, MOLM-13, 72 h, MOLM-13 cells, three days, CellTiter-Glo
[1] = compound alone (without gilteritinib), 11 IC50
[2] = with gilteritinib 10 nM, 11 IC50 gilteritinib
[3] = compound alone (without gilteritinib), read-out: MOLM-13 IC50
[4] = with gilteritinib 20 nM, read-out: MOLM-13 IC50 gilteritinib

Row | Compound | IC50 (MV4;11 cells; [1]) | IC50 (MV4;11 cells; [2]) | IC50 (MOLM-13 cells; [3]) | IC50 (MOLM-13 cells; [4])
1 | O=C1CCC(N2C(=O)c3ccc(NCCC[C@H]4C[C@H](n5cc(-c6cnc7c(Cl)cccc7n6)cn5)C4)cc3C2=O)C(=O)N1 (stereo partly drawn) [GS-219, 5-((3-(trans-3-(4-(5-Chloroquinoxalin-2-yl)-1H-pyrazol-1-yl)cyclobutyl)propyl)amino)-2-(2,6-dioxopiperidin-3-yl)isoindoline-1,3-dione] | 100 to 1000 nM | 10 to 100 nM | > 1000 nM | 10 to 100 nM
2 | O=C1CCC(N2C(=O)c3ccc(NCCC[C@H]4C[C@H](n5cc(-c6cnc7ccc(N8CCNC9(CC9)C8)cc7n6)cn5)C4)cc3C2=O)C(=O)N1 (stereo partly drawn) [GS-220, 5-((3-(trans-3-(4-(7-(4,7-Diazaspiro[2.5]octan-7-yl)quinoxalin-2-yl)-1H-pyrazol-1-yl)cyclobutyl)propyl)amino)-2-(2,6-dioxopiperidin-3-yl)isoindoline-1,3-dione] | > 1000 nM | 100 to 1000 nM | > 1000 nM | 100 to 1000 nM
3 | Cc1nn([C@H]2C[C@@H](CCCNc3ccc4c(c3)C(=O)N(C3CCC(=O)NC3=O)C4=O)C2)cc1-c1cnc2ccc(N3CCOCC3)cc2n1 (stereo partly drawn) [GS-221, 2-(2,6-Dioxopiperidin-3-yl)-5-((3-(cis-3-(3-methyl-4-(7-morpholinoquinoxalin-2-yl)-1H-pyrazol-1-yl)cyclobutyl)propyl)amino)isoindoline-1,3-dione] | < 10 nM | < 10 nM | < 10 nM | < 10 nM
4 | O=C1CCC(N2C(=O)c3ccc(NCCC[C@H]4C[C@H](n5cc(-c6cccc(NC7CCOCC7)n6)cn5)C4)cc3C2=O)C(=O)N1 (stereo partly drawn) [GS-222, 2-(2,6-Dioxopiperidin-3-yl)-5-((3-(trans-3-(4-(6-((tetrahydro-2H-pyran-4-yl)amino)pyridin-2-yl)-1H-pyrazol-1-yl)cyclobutyl)propyl)amino)isoindoline-3-dione] | > 1000 nM | 100 to 1000 nM | > 1000 nM | 10 to 100 nM
5 | Cc1nn([C@H]2C[C@@H](CCCNc3ccc4c(c3)C(=O)N(C3CCC(=O)NC3=O)C4=O)C2)cc1-c1cnc2ccc(C3CCOCC3)cc2n1 (stereo partly drawn) [GS-223, 2-(2,6-Dioxopiperidin-3-yl)-5-((3-(cis-3-(3-methyl-4-(7-(tetrahydro-2H-pyran-4-yl)quinoxalin-2-yl)-1H-pyrazol-1-yl)cyclobutyl)propyl)amino)isoindoline-1,3-dione] | < 10 nM | < 10 nM | < 10 nM | < 10 nM
6 | CN1CCC(c2ccc3ncc(-c4cnn([C@H]5C[C@H](CCCNc6ccc7c(c6)C(=O)N(C6CCC(=O)NC6=O)C7=O)C5)c4)nc3c2)CC1 (stereo partly drawn) [GS-224, 2-(2,6-Dioxopiperidin-3-yl)-5-((3-(trans-3-(4-(7-(1-methylpiperidin-4-yl)quinoxalin-2-yl)-1H-pyrazol-1-yl)cyclobutyl)propyl)amino)isoindoline-1,3-dione] | 100 to 1000 nM | 10 to 100 nM | 100 to 1000 nM | < 10 nM
7 | O=C1CCC(N2Cc3ccc(CCCCC4CC(n5cc(-c6cnc7ccccc7n6)cn5)C4)cc3C2=O)C(=O)N1 (stereo not shown) [GS-225, 3-(1-Oxo-6-(4-(3-(4-(quinoxalin-2-yl)-1H-pyrazol-1-yl)cyclobutyl)butyl)isoindolin-2-yl)piperidine-2,6-dione] | 100 to 1000 nM | 10 to 100 nM | > 1000 nM | 10 to 100 nM
8 | O=C1CCC(N2Cc3cc(CCCCC4CC(n5cc(-c6cnc7ccccc7n6)cn5)C4)ccc3C2=O)C(=O)N1 (stereo not shown) [GS-226, 3-(1-Oxo-5-(4-(3-(4-(quinoxalin-2-yl)-1H-pyrazol-1-yl)cyclobutyl)butyl)isoindolin-2-yl)piperidine-2,6-dione] | 100 to 1000 nM | 100 to 1000 nM | > 1000 nM | > 1000 nM
9 | O=C1CCC(N2C(=O)c3ccc(NCCC[C@H]4C[C@@H](n5cc(-c6cnc7ccc(N8CCOCC8)cc7n6)c(C6CC6)n5)C4)cc3C2=O)C(=O)N1 (stereo partly drawn) [GS-227, 5-((3-(cis-3-(3-Cyclopropyl-4-(7-morpholinoquinoxalin-2-yl)-1H-pyrazol-1-yl)cyclobutyl)propyl)amino)-2-(2,6-dioxopiperidin-3-yl)isoindoline-1,3-dione] | < 10 nM | < 10 nM | < 10 nM | < 10 nM
10 | O=C1CCC(N2C(=O)c3ccc(NCCC[C@H]4C[C@H](n5cc(-c6cnc7ccc(CN8CCNCC8)cc7n6)c(C6CC6)n5)C4)cc3C2=O)C(=O)N1 (stereo partly drawn) [GS-228, 5-((3-(trans-3-(3-Cyclopropyl-4-(7-(piperazin-1-ylmethyl)quinoxalin-2-yl)-1H-pyrazol-1-yl)cyclobutyl)propyl)amino)-2-(2,6-dioxopiperidin-3-yl)isoindoline-1,3-dione] | < 10 nM | < 10 nM | < 10 nM | < 10 nM
11 | O=C1CCC(N2C(=O)c3ccc(NCCC[C@H]4C[C@H](n5cc(-c6cnc7ccc(OC8CCNCC8)cc7n6)c(C6CC6)n5)C4)cc3C2=O)C(=O)N1 (stereo partly drawn) [GS-229, 5-((3-(trans-3-(3-Cyclopropyl-4-(7-(piperidin-4-yloxy)quinoxalin-2-yl)-1H-pyrazol-1-yl)cyclobutyl)propyl)amino)-2-(2,6-dioxopiperidin-3-yl)isoindoline-1,3-dione] | 10 to 100 nM | < 10 nM | 10 to 100 nM | < 10 nM
12 | O=C1CCC(N2C(=O)c3ccc(NCCC[C@H]4C[C@H](n5cc(-c6cnc7ccc(CN8CCOCC8)cc7n6)c(C6CC6)n5)C4)cc3C2=O)C(=O)N1 (stereo partly drawn) [GS-230, 5-((3-(trans-3-(3-Cyclopropyl-4-(7-(morpholinomethyl)quinoxalin-2-yl)-1H-pyrazol-1-yl)cyclobutyl)propyl)amino)-2-(2,6-dioxopiperidin-3-yl)isoindoline-1,3-dione] | 10 to 100 nM | < 10 nM | 10 to 100 nM | < 10 nM
13 | O=C1CCC(N2C(=O)c3ccc(NCCC[C@H]4C[C@@H](n5cc(-c6cnc7ccc(C8CCNCC8)cc7n6)c(C6CC6)n5)C4)cc3C2=O)C(=O)N1 (stereo partly drawn) [GS-231, 5-((3-(cis-3-(3-Cyclopropyl-4-(7-(piperidin-4-yl)quinoxalin-2-yl)-1H-pyrazol-1-yl)cyclobutyl)propyl)amino)-2-(2,6-dixopiperidin-3-yl)isoindoline-1,3-dione] | 10 to 100 nM | < 10 nM | 10 to 100 nM | < 10 nM
14 | O=C1CCC(N2C(=O)c3ccc(NCCC[C@H]4C[C@H](n5cc(-c6ccccc6)cn5)C4)cc3C2=O)C(=O)N1 (stereo partly drawn) [GS-232, 2-(2,6-Dioxopiperidin-3-yl)-5-((3-(trans-3-(4-phenyl-1H-pyrazol-1-yl)cyclobutyl)propyl)amino)isoindoline-1,3-dione] | 100 to 1000 nM | 100 to 1000 nM | 100 to 1000 nM | > 1000 nM
15 | N#Cc1cccc2nc(-c3cnn([C@H]4C[C@H](CCCNc5ccc6c(c5)C(=O)N(C5CCC(=O)NC5=O)C6=O)C4)c3)cnc12 (stereo partly drawn) [GS-233, 2-(1-(trans-3-(3-((2-(2,6-Dioxopiperidin-3-yl)-1,3-dioxoisoindolin-5-yl)amino)propyl)cyclobutyl)-1H-pyrazol-4-yl)quinoxaline-5-carbonitrile] | 100 to 1000 nM | 10 to 100 nM | 100 to 1000 nM | 10 to 100 nM
16 | O=C1CCC(N2C(=O)c3ccc(NCCC[C@H]4C[C@H](n5cc(-c6cnc7c(F)cccc7n6)cn5)C4)cc3C2=O)C(=O)N1 (stereo partly drawn) [GS-234, 2-(2,6-Dioxopiperidin-3-yl)-5-((3-(trans-3-(4-(5-fluoroquinoxalin-2-yl)-1H-pyrazol-1-yl)cyclobutyl)propyl)amino)isoindoline-1,3-dione] | < 10 nM | 10 to 100 nM | 100 to 1000 nM | 10 to 100 nM
